{"source": "patent US20260365695A1", "about": "“NOVEL PEPTIDE EXHIBITING SKIN CONDITION IMPROVEMENT ACTIVITY AND COSMETIC COMPOSITION CONTAINING SAME” (DAEBONG LS CO., LTD., priority 2023, published 2026)", "key": {"[1]": {"tested_on": "nitric oxide (NO) production", "assay": "Inhibition of Nitric Oxide (NO) Production (griess reagent) in LPS-stimulated RAW264.7 cells", "assay_type": "cell-based", "conditions": "24 hours; for NO Production (%): LPS 1 μg/ml, relative to LPS control = 100", "procedure": "(§1) RAW264.7 macrophage cells were obtained from the American Type Culture Collection (ATCC) and cultured in Dulbecco's Modified Eagle's Medium (DMEM) containing 100 units/mL penicillin-streptomycin and 10% (v/v) fetal bovine serum (FBS) at 37 °C in a 5% CO2 incubator, and subculture was performed every 2 to 3 days.\nRAW264.7 cells were seeded at 1.5×10^5 cells/well in a 24-well plate and incubated for 18 hours at 37 °C in a 5% CO2 incubator. The cells were then treated with the peptide prepared in the above Example at concentrations of 50-200 μM and incubated for 24 hours.\nFrom each experimental group, 100 μL of the supernatant was collected into a 96-well plate, and 100 μL of griess reagent was added. The mixture was allowed to react at room temperature for 10 minutes, and absorbance was measured at 540 nm using a microplate reader. The positive control group was treated with 2 µM of 2-amino-4-methylpyridine (2-AM). The relative levels of NO production following the treatments described in the above Example, based on NO production induced by the stimulant (LPS), are shown in Table 1 and FIG. 2 below."}, "[2]": {"tested_on": "hyaluronic acid production", "assay": "Hyaluronic acid (HA) production in HaCaT cells (ELISA)", "assay_type": "cell-based, human", "procedure": "The HaCaT human keratinocyte cell line was obtained from Cell Line Service GmbH (Germany). The cells were cultured in DMEM containing 1% penicillin-streptomycin and 10% fetal bovine serum (FBS) at 37 °C in a 5% CO2 incubator, and subculture was performed every 2 to 3 days.\nHaCaT cells were seeded at 1.0×10^5 cells/well in a 24-well plate and incubated for 24 hours at 37 °C in a 5% CO2 incubator. After incubation, the culture medium was replaced with serum-free DMEM, and the peptide prepared in the above Example was applied at concentrations of 50-200 μM, followed by incubation for 24 hours.\nThe supernatant from each experimental group was collected, and the amount of hyaluronic acid (HA) released into the medium was measured. The positive control group was treated with N-acetylglucosamine at a concentration of 10 mM. Measurement of hyaluronic acid production was conducted using a Hyaluronic Acid ELISA Kit (Cusabio Biotechnology Co., Ltd.) following the manufacturer's protocol."}, "[3]": {"tested_on": "procollagen type I peptide production", "assay": "Procollagen Type I Peptide (PIP) production in NHDF cells (EIA)", "assay_type": "cell-based, Human", "procedure": "Normal Human Dermal Fibroblasts (NHDF) were obtained from Lonza (Lonza Walkersville, Inc.) and cultured in FBM (Fibroblast Basal Medium) supplemented with 0.1% hFGF-B, insulin, GA-1000, and 2% FBS at 37 °C in a 5% CO2 incubator. Subculture was performed every 2 to 3 days.\nNHDF cells were seeded at 2.0×10^4 cells/well in a 24-well plate and incubated for 24 hours at 37 °C in a 5% CO2 incubator. After incubation, the culture medium was replaced with serum-free FBM, and the peptide prepared in the above Example was applied at concentrations of 1-100 μM, followed by incubation for 24 hours. The supernatant from each experimental group was collected, and the amount of procollagen released into the medium was measured. The positive control group was treated with ascorbic acid at a concentration of 0.001 v/v %. Measurement of procollagen levels was performed using a Procollagen Type I Peptide (PIP) EIA Kit (Takara Biomedical Co.) according to the manufacturer's protocol. The quantitative results of procollagen type I peptide production following treatment with the peptide of the Example are shown in Table 3 and FIG. 4."}, "[4]": {"assay": "Cytotoxicity Evaluation in Macrophages (EZ-Cytox Assay)", "assay_type": "cell-based", "conditions": "mouse, positive control, LPS 1 μg/ml, RAW264.7 cells, control = 100, read-out: Cell viability (%)", "procedure": "as §1\nThe EZ-cytox assay is a representative method for measuring cell viability using the principle that water-soluble tetrazolium salts (WSTs) react with dehydrogenases of viable cells to produce a water-soluble orange formazan.\nTo evaluate cytotoxicity, RAW264.7 cells were seeded at 1.5×10^4 cells/well in a 96-well plate using DMEM supplemented with 10% FBS and incubated for 18 hours at 37 °C in a 5% CO2 incubator. The test samples were then applied to the cultured cells. After treatment, EZ-cytox was added to each well and incubated for 30 minutes under the same conditions. Absorbance was measured at 450 nm using a microplate reader. The mean absorbance values of each sample group were compared with the control group to determine cell viability."}, "[5]": {"conditions": "50 μM, 24 hours, untreated group = 100"}, "[6]": {"conditions": "100 μM, 24 hours, untreated group = 100"}}, "note": "Where a SMILES comes first, the peptide text is derived from it.", "data": [{"smiles": "N[C@@H](Cc1ccc(O)cc1)C(=O)NCC(=O)N[C@@H](CO)C(=O)N[C@@H](CC(=O)O)C(=O)O", "note": "[Example, Tyr-Gly-Ser-Asp] (H-YGSD-OH)", "values": [{"measurement": "NO Production (%)", "setting": "[1]; 50 μM", "value": "101.55 ± 2.59", "unit": "%"}, {"measurement": "NO Production (%)", "setting": "[1]; 100 μM", "value": "91.42 ± 4.58", "unit": "%"}, {"measurement": "NO Production (%)", "setting": "[1]; 200 μM", "value": "86.51 ± 2.39", "unit": "%"}, {"measurement": "NO production, result in words", "setting": "[1]; 50-200 μM, LPS", "value": "inhibit NO production in a concentration-dependent manner"}, {"measurement": "Hyaluronic acid production (%)", "setting": "[2]; [5]", "value": "105.1 ± 5.45", "unit": "%"}, {"measurement": "Hyaluronic acid production (%)", "setting": "[2]; [6]", "value": "123.64 ± 0.81", "unit": "%"}, {"measurement": "Hyaluronic acid production (%)", "setting": "[2]; 200 μM, 24 hours, untreated group = 100", "value": "132.68 ± 22.43", "unit": "%"}, {"measurement": "hyaluronic acid production, result in words", "setting": "[2]; 50-200 μM, 24 hours", "value": "increase in hyaluronic acid production"}, {"measurement": "Procollagen production (%)", "setting": "[3]; 1 μM, 24 hours, untreated group = 100", "value": "103.47 ± 6.38", "unit": "%"}, {"measurement": "Procollagen production (%)", "setting": "[3]; 10 μM, 24 hours, untreated group = 100", "value": "110.79 ± 5.44", "unit": "%"}, {"measurement": "Procollagen production (%)", "setting": "[3]; [5]", "value": "121.67 ± 3.57", "unit": "%"}, {"measurement": "Procollagen production (%)", "setting": "[3]; [6]", "value": "132.38 ± 1.24", "unit": "%"}, {"measurement": "procollagen production, result in words", "setting": "[3]; 1-100 μM, 24 hours", "value": "increase in procollagen production"}]}, {"smiles": "CC(=O)N[C@H]1C(O)O[C@H](CO)[C@@H](O)[C@@H]1O", "note": "(stereo partly shown) [NAG, N-acetylglucosamine, reference compound]", "values": [{"measurement": "activity at 10000 µM", "setting": "[2]; Homo sapiens, 24 h, 10 mM, positive control, untreated group = 100", "value": "121 ± 10.4", "unit": "%"}]}, {"smiles": "O=C1O[C@H]([C@@H](O)CO)C(O)=C1O", "note": "[Asc. A, ascorbic acid, reference compound]", "values": [{"measurement": "activity at 10 µg/mL", "setting": "[3]; Homo sapiens, 24 h, 10 μg/mL, positive control, untreated group = 100", "value": "176 ± 3.91", "unit": "%"}]}, {"smiles": "Cc1ccnc(N)c1", "note": "[Example 2-AM, 2-amino-4-methylpyridine, reference compound]", "values": [{"measurement": "viability at 10 µM", "setting": "[4]", "value": "94.1 ± 1.76", "unit": "%"}]}]}
